In the assay the test system is Ophelimus maskelli. Kind of assay: Free choice experiment: Eucalyptus camaldulensis saplings with monoterpene disks exposed to Ophelimus maskelli gall wasps. Format: in vivo. The settings on record: for Eucalyptus camaldulensis resistance to Ophelimus maskelli infection / Ophelimus maskelli oviposition / number of infected leaves compared to control / number of galls per leaf compared to control: free choice, in words; for Ophelimus maskelli oviposition: compared to controls; for number of infected leaves compared to control: eucalyptol vs mineral oil, geraniol and citronellal vs mineral oil and eucalyptol controls; for number of galls per leaf compared to control: vs mineral oil and eucalyptol controls. The method, then: Preparation of monoterpene disks—100 μl of pure monoterpene solutions of geraniol, citronellal, eucalyptol (also known as 1,8-cineole, 1,8-epoxy-p-menthane) or mineral oil (Sigma-Aldrich Cat. Nos. G9698, 27470, C80601 or M5904, respectively) were each mixed with 5 ml of Vaseline. The mixed solutions were then spread using a spatula onto 20 mm in diameter filter paper disks (Whatman 3 mm cellulose chromatography papers, Sigma-Aldrich Cat. No. Z742422).
Free choice experiments—The free-choice experiments, were gall wasps were free to choose which plant to infest in a given cage, were carried out with Ophelimus maskelli gall wasp in three net cages of 80 cm×100 cm×150 cm in a greenhouse (28 ±2° C.) as described in Bleeker et al. [Plant Physiol. (2009) 151(2): 925-935], with the following modifications. Four Eucalyptus camaldulensis 3 months old saplings were placed randomly in each cage and 10 disks with either geraniol, citronellal, eucalyptol (1,8-Cineole, used as control) or mineral oil (used as control) were attached by metal wires to the branches of each sapling (10 branches for each sapling) (see FIG. 2) so that each sapling had 10 disks attached with one of the treatments. Next, 500 Ophelimus maskelli female adult wasps were released in the middle of each net cage. One week later the disks were removed from the branches of the saplings, the saplings were taken out of the cage and thereafter the Eucalyptus saplings were transferred to an insect free net house, an outdoor perimeter surrounded by a 50 mesh insect proof net. The plants were maintained in the net house for 6 weeks after inoculation. At the end of the six week period, infection levels were evaluated by counting the number of galls developed on the treated saplings.

Setting [1] is: average of 3 cages, leaves with 1-10 galls per leaf.
Setting [2] is: average of 3 cages, leaves with 10-50 galls per leaf.
Where [3] appears, read: average of 3 cages, leaves with 50-100 galls per leaf.
The mark [4] stands for this setting: cage 1, leaves with 1-10 galls per leaf, 6 weeks after inoculation.
Where [5] appears, read: cage 1, leaves with 10-50 galls per leaf, 6 weeks after inoculation.
Where [6] appears, read: cage 1, leaves with 50-100 galls per leaf, 6 weeks after inoculation.
Setting [7] is: cage 1, total, 6 weeks after inoculation.
Setting [8] is: cage 2, leaves with 1-10 galls per leaf, 6 weeks after inoculation.
The mark [9] stands for this setting: cage 2, leaves with 10-50 galls per leaf, 6 weeks after inoculation.
The mark [10] stands for this setting: cage 2, leaves with 50-100 galls per leaf, 6 weeks after inoculation.
The mark [11] stands for this setting: cage 2, total, 6 weeks after inoculation.
The mark [12] stands for this setting: cage 3, leaves with 1-10 galls per leaf, 6 weeks after inoculation.
Where [13] appears, read: cage 3, leaves with 10-50 galls per leaf, 6 weeks after inoculation.
Setting [14] is: cage 3, leaves with 50-100 galls per leaf, 6 weeks after inoculation.
[15] abbreviates: cage 3, total, 6 weeks after inoculation.

`CC(C)=CCC/C(C)=C/CO` [geraniol, (trans)-3,7-Dimethyl-2,6-octadien-1-ol]: the “Eucalyptus camaldulensis resistance to Ophelimus maskelli infection” value was “significantly increased”, the Ophelimus maskelli oviposition result is given as “significantly decreased”, the “number of infected leaves compared to control” value is “reduced number of infected leaves” and the “number of galls per leaf compared to control” value is given as “reduced number of galls per leaf”. The “Number of infected leaves” value under setting [1] is listed as 4. Further, under setting [2], the “Number of infected leaves” value was determined as 2. Under setting [3], the “Number of infected leaves” value turned out to be 1. Moreover, where the note is “average of 3 cages, total”, the “Number of infected leaves” value came out at 7. Further, the “Number of infected leaves” value under setting [4] is 4. Also, the “Number of infected leaves” value under setting [5] is on record as 3. Further, the “Number of infected leaves” value under setting [6] amounted to 1. The “Number of infected leaves” value under setting [7] came to 8. Also, the “Number of infected leaves” value under setting [8] was 4. The “Number of infected leaves” value under setting [9] worked out at 2. The “Number of infected leaves” value under setting [10] amounted to 1. Also, the “Number of infected leaves” value under setting [11] was found to be 7. Further, the “Number of infected leaves” value under setting [12] came out at 4. Besides, the “Number of infected leaves” value under setting [13] amounted to 1. For the same compound, the “Number of infected leaves” value under setting [14] turned out to be 1. For the same compound, the “Number of infected leaves” value under setting [15] is on record as 6.

Turning to `CC12CCC(CC1)C(C)(C)O2` [eucalyptol, 1,8-cineole, reference compound], the Ophelimus maskelli oviposition entry is “did not have a negative effect” and the “number of infected leaves compared to control” value was “slight increase”. Moreover, the “Number of infected leaves” value under setting [1] is reported as 5.333. Moreover, the “Number of infected leaves” value under setting [2] was determined as 10. Besides, the “Number of infected leaves” value under setting [3] is listed as 6. In addition, where the note is “average of 3 cages, total”, the “Number of infected leaves” value was 21.33. The “Number of infected leaves” value under setting [4] is reported as 4. Besides, the “Number of infected leaves” value under setting [5] stood at 14. Moreover, under setting [6], the “Number of infected leaves” value is on record as 6. In addition, the “Number of infected leaves” value under setting [7] is listed as 24. Besides, the “Number of infected leaves” value under setting [8] is reported as 5. Moreover, the “Number of infected leaves” value under setting [9] stood at 6. Besides, under setting [10], the “Number of infected leaves” value is reported as 6. Moreover, under setting [11], the “Number of infected leaves” value is 17. Moreover, the “Number of infected leaves” value under setting [12] amounted to 7. Moreover, under setting [13], the “Number of infected leaves” value is reported as 10. Further, the “Number of infected leaves” value under setting [14] was 6. Further, the “Number of infected leaves” value under setting [15] was 23.

On to `CC(C)=CCCC(C)CC=O` (stereo not shown) [citronellal, 3,7-dimethyloct-6-en-1-al], for which the “Eucalyptus camaldulensis resistance to Ophelimus maskelli infection” value was “significantly increased”, the Ophelimus maskelli oviposition entry was “significantly decreased”, the “number of infected leaves compared to control” value was “reduced number of infected leaves” and the “number of galls per leaf compared to control” value is on record as “reduced number of galls per leaf”. Besides, the “Number of infected leaves” value under setting [1] is 1. In addition, under setting [2], the “Number of infected leaves” value is 3. Also, the “Number of infected leaves” value under setting [3] stood at 0. Further, for the setting “average of 3 cages, total”, the “Number of infected leaves” value was determined as 4. The “Number of infected leaves” value under setting [4] came to 1. The “Number of infected leaves” value under setting [5] was 4. Moreover, the “Number of infected leaves” value under setting [6] is listed as 0. Further, the “Number of infected leaves” value under setting [7] is listed as 5. In addition, the “Number of infected leaves” value under setting [8] is 1. Also, the “Number of infected leaves” value under setting [9] is on record as 2. The “Number of infected leaves” value under setting [10] is 0. Also, the “Number of infected leaves” value under setting [11] amounted to 3. The “Number of infected leaves” value under setting [12] was 1. The “Number of infected leaves” value under setting [13] came out at 3. In addition, the “Number of infected leaves” value under setting [14] is on record as 0. Moreover, the “Number of infected leaves” value under setting [15] is 4.
